{"source": "patent US12728111B2", "about": "“Electrophilic compounds and electrophilic prodrugs for treating aneurysm” (University of Pittsburgh—Of the Commonwealth System of …, priority 2020, dated 2026)", "key": {"[1]": {"test_system": "Vcam1, MCP1, Icam1 gene expression in suprarenal aorta", "experiment": "Real-time PCR gene expression in mouse suprarenal aorta", "assay_type": "in vivo", "text": "FIG. 2. […] (A) Quantification of gene expression levels in the mice suprarenal aorta region by real-time PCR (n=3 to 4). (B, C) Serum cytokines levels measured by ELISA (n=8 to 11). (D) FACS of single cells isolated from the mice suprarenal aorta region. Each sample is the pool of cells from three mice (n=3). (E, F) Quantification of the percentage of CD45+ leukocytes and CD64+, CD11c+M1-like macrophages in total cells from the FACS analysis. Ordinary one-way ANOVA followed by Tukey's test was performed for (A), (E) and (F). For ELISA in (B) and (C), to avoid the effect of the non-detected data point, a non-parametric Kruskal-Wallis test followed by Dunn's multiple comparisons was performed by adding zero to the missing data point. Data presented as mean±SEM. A p<0.05 for both the main test and post hoc test was considered statistically significant.\nTen weeks old male C57BL/6J mice were purchased from The Jackson Laboratory. The murine AAA model induced by AngII/PCSK9 gain-of-function mutation is well-established. After acclimation for 1 week, mice were fed a western diet (TD.88137, Envigo) and intraperitoneally injected with 2×1011 genomic copies of AAV-PCSK9.D377Y (AAV serotype 8, Penn Vector Core). Two weeks later, each mouse was subcutaneously implanted with two osmotic pumps (Model #2004, Alzet). One was loaded with AngII (#H-1706, Bachem), releasing at a rate of 1,500ng/kg/min, while the other one was loaded with PEG-400, OA or NO2—OA at a delivery rate of 5 mg/kg/day for OA or NO2—OA. After 4-weeks infusion, mice were euthanized and the maximal outer diameter of the suprarenal aorta was assessed with a digital caliper by a third person blinded to the treatment. Suprarenal aortas with a maximal diameter ≥50% larger than standard size (≥1.2 mm) were considered as abdominal aortic aneurysms. […]\nMice suprarenal aortas were collected after the measurement of their diameter. […] Gene expression was quantified in triplicates by quantitative real-time PCR (qPCR) using IQ SYBR Green Supermix (#1708882, Bio-Rad) with the indicated gene primers."}, "RAW 264.7 cells": {"test_system": "RAW 264.7 cells", "experiment": "Boyden chamber transwell migration assay", "assay_type": "cell-based, murine", "conditions": "in the presence of Ang II; 2.5 μM, 12 hours", "experimental": "HUVECs were seeded in the lower chambers of the Transwells (#CLS3464, Sigma-Aldrich) and cultured up to 80% confluence before treatment with or without AngII (100 nM) for 6 hours in OptiMEM I reduced serum medium (#31985-070, Gibco). RAW 264.7 cells starved with OptiMEM I overnight were seeded (2×10^5 per well) in the upper chambers of the transwells and treated with vehicle (ethanol), OA (2.5 μM) or NO2—OA (2.5 μM) for additional 12 hours. Cells on the upper chamber were then removed by gently scraping with a cotton swab, and the membranes were fixed in 4% PFA for 15 min and stained with 0.1% crystal violet for 15 min at room temperature. Images were acquired by AMG Evos XI Core Imaging System. Quantification of the positively stained area was performed using Image J v1.52s."}, "oxLDL-treated BMDMs": {"test_system": "oxLDL-treated BMDMs", "experiment": "Cytokine ELISA in medium of oxLDL-treated BMDMs", "assay_type": "cell-based, mouse", "conditions": "2.5 μM, 8 h oxLDL, vs control", "experimental": "FIG. 3. NO2—OA prevents oxLDL-induced NFκB activation and pro-inflammatory cytokine production. Primary BMDMs were pretreated with vehicle, OA (2.5 μM) or NO2—OA (2.5 μM) for 1 h, followed by treatment of oxLDL (50 to 100 μg/ml) for the indicated times. (A, B) Nuclear (A) and cytoplasmic protein (B) fractions were isolated 1 h after oxLDL treatment and subjected to western blot with antibodies against p65, lamin a/c (nuclear marker) and GAPDH (cytosolic marker). Representative western blot images of three independent experiments are shown. (C) Quantification of the p65 nuclear to cytoplasmic ratio by image studio (normalized by the internal control, n=3). (D-F) Following 8 h of oxLDL treatment, levels of IL6, MCP1 and TNFα in the cell medium were measured by ELISA (n=4). (G) Real-time PCR quantification of gene expression levels of IL1b and Mmp9 in total mRNA extracted from the BMDMs. (C) Ordinary one-way ANOVA followed by Tukey's test was performed. As of (D-F), the basal level contains several non-detectable values, so ordinary one-way ANOVA followed by correction of FDR were performed for the oxLDL-treated groups only. Ordinary one-way ANOVA followed by Tukey's test was performed for (G). Data presented as mean±SEM. A p<0.05 for both the main test and post hoc test was considered statistically significant.\nMurine RAW 264.7 cell line, 293T/17 cell line and Primary Umbilical Vein Endothelial Cells (PCS-100-010, HUVECs) were purchased from ATCC (Manassas, VA) and cultured in DMEM (Gibco) with 10% FBS (Thermo Fisher Scientific) or M199 (Gibco) supplemented with 20% FBS for HUVECs. BMDMs isolated from 12 to 16-week-old C57BL/6 wild type mice were cultured in bone marrow macrophage differentiation media. The differentiation medium was prepared by adding L-cell conditioned media (30%), non-essential amino acids (#11140-050, Gibco), sodium pyruvate (1 mM, #11360-070, Gibco), 2-Mercaptoethanol (55 μM) and 10% FBS into Iscove's Modified Dulbecco's Medium (IMDM, Gibco)."}}, "data": [{"smiles": "CCCCCCCCC(=CCCCCCCCC(=O)O)[N+](=O)[O-]", "note": "[NO2—OA, 10-nitro-octadec-9-enoic acid]", "values": [{"measurement": "expression of intercellular adhesion molecule 1 (Icam1)", "setting": "[1]; vs vehicle", "result": "not statistically significant"}, {"measurement": "expression of MCP1 gene", "setting": "[1]; vs vehicle control", "result": "significantly decreased"}, {"measurement": "expression of vascular cell adhesion protein 1 (Vcam1) gene", "setting": "[1]; vs vehicle control", "result": "significantly decreased"}, {"measurement": "endothelial-dependent macrophage migration", "setting": "RAW 264.7 cells", "result": "significantly inhibits"}, {"measurement": "IL6 level in oxLDL-treated cell medium", "setting": "oxLDL-treated BMDMs", "result": "significant decrease"}, {"measurement": "MCP1 level in oxLDL-treated cell medium", "setting": "oxLDL-treated BMDMs", "result": "marginally significant reduction"}, {"measurement": "TNFα levels in oxLDL-treated cell medium", "setting": "oxLDL-treated BMDMs", "result": "no significant difference"}]}]}
